Assay results published in PMC8150775, “Repositioning Azelnidipine as a Dual Inhibitor Targeting CD47/SIRPα and TIGIT/PVR Pathways for Cancer Immuno-Therapy” (Biomolecules, 2021).

Assays:
[1] = molecular target: T1, human PD-1/PD-L1 (Homo sapiens, UniProt Q15116); test: Blocking assay, PD-1-Fc protein binding to CHOK1-hPD-L1 cells; settings: 100 μM
T1 construct: host or cells: CHOK1-hPD-L1 cells
From the text: The small molecule inhibitor could not only bind to the target; most importantly, it should interfere with the receptor–ligand interactions. Subsequently, the candidate inhibitors were screened by the blocking assays with the established CD47 and TIGIT over-expressing cell lines. The test was initialed with a preliminary screening of the candidates with a single concentration (Figure 2D). Generally, the SMI blocking efficacy to the CD47/SIRPα interaction was much higher than that of the TIGIT/PVR. […] Therefore, the SMI-F11 and SMI-F17 may exert dual blocking effects in the CD47/SIRPα and TIGIT/PVR pathways. Blocking assays with a concentration gradient of the SMI were further performed to validate the preliminary screening. […] The similar blocking assays with the mouse CD47 and TIGIT over-expressing cells were also performed. […] Considering that most pairs of the immune checkpoints interact with the corresponding ligand in parallel forms, the blocking assays with the PD-1/PD-L1 interaction system was also conducted to test the specificity.
There are three supplemental Figures and one supplemental Table.
Supplemental figure and legend
Figure S1. The blocking efficacy of PD-1/PD-L1 by Azelnidipine. (A) The representative FACS histogram of blocking assay of Azelnidipine (100 μM) with CHOK1-hPD-L1 cells and PD-1-Fc protein (blue histogram). […]

[2] = molecular target: T2, human SIRPα (Homo sapiens, UniProt P78324); test: Microscale thermophoresis (MST) binding
T2 construct: His; purchased ACRO Biosystem SIA-H5225
T2 sequence (P78324 31-504): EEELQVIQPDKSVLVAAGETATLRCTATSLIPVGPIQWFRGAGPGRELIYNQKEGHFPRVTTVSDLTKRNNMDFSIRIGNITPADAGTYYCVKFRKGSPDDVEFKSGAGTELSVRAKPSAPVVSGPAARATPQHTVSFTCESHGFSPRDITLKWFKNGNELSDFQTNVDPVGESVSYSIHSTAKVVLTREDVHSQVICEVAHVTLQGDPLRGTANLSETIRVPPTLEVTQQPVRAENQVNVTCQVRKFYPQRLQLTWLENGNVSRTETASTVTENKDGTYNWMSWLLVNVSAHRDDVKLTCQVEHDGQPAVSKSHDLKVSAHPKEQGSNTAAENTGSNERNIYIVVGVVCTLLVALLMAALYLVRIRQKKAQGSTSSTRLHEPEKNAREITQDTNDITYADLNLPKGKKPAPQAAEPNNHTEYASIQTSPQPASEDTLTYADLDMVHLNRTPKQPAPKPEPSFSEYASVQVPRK
Protocol: (§1) MST assays were performed to test the affinity of SMI-F11 (azelnidipine) to the indicated protein using the Monolith NT.115 system, as previously reported. His tagged human SIRPα (SIA-H5225, ACRO Biosystem, Beijing, China), mouse SIRPα (50956-M08H, Sino Biological, Beijing, China), human PVR (CD5-H5223, ACRO Biosystem, Beijing, China), and mouse PVR (50259-M08H, Sino Biological, Beijing, China) were used. The protein was labeled with Red-NHS647 dye (NanoTemper Technologies GmhH, Munich, Germany) according to the manufacturer’s instructions. Azelnidipine was 2-fold serially diluted from 200 μM and subsequently tested. Red-NHS647 dye-labeled protein was incubated with the diluted azelnidipine, with equal volume for 5 min at room temperature; the mixture was then loaded onto standard capillaries for detection. The KD values were calculated by the analysis software (MO. Affinity Analysis, version number 2.2.4, NanoTemper Technologies GmhH, Munich, Germany).

[3] = molecular target: mouse PVR (Mus musculus, UniProt F6V4I7); test: Microscale thermophoresis (MST) binding
mouse PVR, sequence (F6V4I7 29-347): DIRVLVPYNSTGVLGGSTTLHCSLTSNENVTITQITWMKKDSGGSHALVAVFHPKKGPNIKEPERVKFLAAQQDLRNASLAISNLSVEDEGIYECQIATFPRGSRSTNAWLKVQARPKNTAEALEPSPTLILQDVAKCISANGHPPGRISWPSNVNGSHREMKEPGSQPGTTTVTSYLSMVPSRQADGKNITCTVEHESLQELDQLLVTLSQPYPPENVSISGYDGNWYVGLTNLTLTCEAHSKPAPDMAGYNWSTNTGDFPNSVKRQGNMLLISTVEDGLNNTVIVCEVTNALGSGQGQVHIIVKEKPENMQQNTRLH
Protocol: as §1

[4] = tested on: MC38 tumors; test: MC38 tumor model, alone or combined with radiotherapy, with ex vivo analysis; assay type: in vivo, C57BL/6 mice
Protocol: BABL/c mice were subcutaneously (s.c.) injected with 2 × 10^5 CT26 cells on the right back, and C57BL/6 mice were injected with 1 × 10^6 MC38 cells. One week later, tumor-bearing mice were randomized into indicated groups, and intraperitoneal (i.p.) injected with azelnidipine or normal saline every day for two weeks. Tumor volumes were measured every other day by the (a) length, (b) width, and (c) height and calculated as volume (V) = a × b × c/2. For the combinational model of azelnidipine and radiotherapy (RT), MC38 tumor-bearing mice received irradiation (IR) when the tumors reached 80–100 mm^3. The mice received one dose of 20 Gy irradiation at the tumor local site, and followed by the treatment of azelnidipine.
Tumor-bearing mice were sacrificed at the end of the treatment. The tumors were dissected and digested into single cell with an enzyme cocktail of 100 U/mL collagenase IV; and Dnase I. The infiltration of CD8^+ T cells at the tumor site was detected by flow cytometry by staining of anti-mouse CD45, anti-mouse CD3, anti-mouse CD8α or isotype control. The MDSCs at the tumor site were analyzed by staining of anti-mouse CD45, anti-mouse CD11b, anti-mouse Ly6C, and anti-mouse Ly6G. […] The frequency of IFN-γ secreting CD8^+ T cells were counted according to the fluorescence minus one (FMO) control with the isotype control of IFN-γ antibody. […]

T1 sequence (Q15116 25-167 limits assumed): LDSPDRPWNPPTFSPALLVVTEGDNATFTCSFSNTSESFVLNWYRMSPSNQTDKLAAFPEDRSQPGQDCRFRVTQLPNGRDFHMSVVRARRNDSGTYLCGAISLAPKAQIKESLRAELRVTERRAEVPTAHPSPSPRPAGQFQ

SMILES: CC1=C(C(=O)OC(C)C)C(c2cccc([N+](=O)[O-])c2)C(C(=O)OC2CN(C(c3ccccc3)c3ccccc3)C2)=C(N)N1 (centres unmarked) [Azelnidipine]
- blocking of human PD-1/PD-L1 interaction [1]: could not block
- Kd [2]: 5.37 µM
- Kd [3]: 13.3 µM
- growth of MC38 tumors, combination with IR ([4]; 5 mg/kg i.p. each day combined with 20 Gy local IR): remarkably suppress tumor growth
- growth of MC38 tumors ([4]; 2 and 5 mg/kg i.p. each day for 2 weeks, alone): significantly restrict
